Common to all, as to assay: biochemical
In one test the target is DRB1*1101 (Homo sapiens, UniProt P01903+P01911, A100R/A169T/A87E/I96F/K41T/L162R/M171V/P40S/Q125H/Q178H/Q39Y/Q99D/R42S/S66Y/T262R/V115G/W38E).
In another test the target is DRB1*0405 (Homo sapiens, UniProt P01903+P01911, A100R/A169T/D86S/F76Y/I96L/K127E/L162R/M171V/N62H/P40V/Q125Y/R42H/S133A/S149N/S66Y/V115G/V209L/W38E). The class given is binding.
The target of another test is DRB4*0101 (Homo sapiens, UniProt P01903+P13762, G164S). The class given is binding.
Another test deals with DRB1*0901 (Homo sapiens, UniProt P01903+P01911, A100R/A103E/D57H/D86V/F55Y/F60I/F76Y/I96F/K127E/L162R/M171V/P40D/Q125H/Q99R/R33Q/R42F/S133A/S66N/T210M/V115G/W38K/Y107V/Y59G/Y89S). The class given is binding.
In another test the target is DRB1*1501 (Homo sapiens, UniProt P01903+P01911). It counts as binding.
A further test addresses DR7 (DRB1*0701) (Homo sapiens, UniProt P01903+P01911, A100R/A102G/A103Q/D57E/D86V/E43K/F76Y/K127E/L162R/M171V/P40G/Q125H/Q99D/R33Q/R42Y/R54Q/S133A/S66F/T210M/V115G/Y107V/Y59L/Y89S). It counts as binding.
For another test, the target named is DRB1*0802 (Homo sapiens, UniProt P01903+P01911, A100R/A103L/A169T/F76Y/H45Y/I96F/K41T/L162R/M171V/P40S/Q125H/Q178H/Q39Y/Q99D/R218S/R42G/S66Y/V115G/W38E). The class given is binding.
A further test has as its target DR1 (DRB1*0101) (Homo sapiens, UniProt P01903+P01911, A100R/D57E/F55L/F60I/F76Y/I96L/L162R/M171V/P40L/Q125E/R42F/V115G/Y59C). It counts as binding.
A further test addresses DRB5*0101 (Homo sapiens, UniProt P01903+Q30154). Particulars: Binding affinity DRB5 *0101.
The target of a further test is DRB1*1302 (Homo sapiens, UniProt P01903+P01911, A100E/A169T/K41T/L162R/M171V/P40S/Q125H/Q178H/Q39Y/Q99D/R42S/S66N/T262R/V115G/W38E/Y61H). The class given is binding.
The next test addresses DR4w4 (DRB1*0401) (Homo sapiens, UniProt P01903+P01911, A100K/A169T/F76Y/I96L/K127E/L162R/M171V/N62H/P40V/Q125Y/R42H/S133A/S149N/S66Y/V115G/V209L/W38E). The class given is binding.

Read-outs that look alike come from different tables or passages of the source. No end group written: not given here.

Chain of DRB1*1101 (P01903 26-254 limits assumed, other chains not shown): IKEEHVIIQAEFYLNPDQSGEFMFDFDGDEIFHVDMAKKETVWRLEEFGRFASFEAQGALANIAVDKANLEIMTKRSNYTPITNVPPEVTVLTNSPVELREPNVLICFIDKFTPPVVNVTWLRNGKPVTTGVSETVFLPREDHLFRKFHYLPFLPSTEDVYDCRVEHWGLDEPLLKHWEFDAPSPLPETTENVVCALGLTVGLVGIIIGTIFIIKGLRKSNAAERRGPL
Chain of DRB1*1302 (P01903 26-254 limits assumed, other chains not shown): as above

The IC50 is the concentration needed to halve the response being measured. A low value points to greater potency in that assay. As to FAGIVTKLPTANNTT [Peptide 89.0175], the IC50 on DRB1*1101 (Binding affinity DRB1 *1101) was 7.63 µM; at DRB1*0405 it was 5.87 µM; on DRB4*0101, 1.2 µM; at DRB1*0901 it was > 20 µM; against DRB1*1501, 2.55 µM; against DR7 (DRB1*0701), 1.28 µM. On DRB1*0802, 1.56 µM corresponded to half-maximal inhibition (IC50).
With LMQLKCPPLLITSNI [Peptide 89.0057], the IC50 against DR1 (DRB1*0101) was 0.214 µM; at DRB5*0101, > 20 µM; at DRB1*0405 it was 1.48 µM; at DRB1*1302 it was 0.123 µM; against DRB4*0101 it was 0.068 µM; against DRB1*0901, 5.08 µM. The IC50 at DRB1*1501 was 0.16 µM; on DRB1*0802 it was 2.8 µM.
Regarding PMCMMIEPPKLRSTA [Peptide 90.0034], the IC50 on DR1 (DRB1*0101) was determined as 0.037 µM; on DRB1*1101 (Binding affinity DRB1 *1101) it was 2.04 µM; at DRB5*0101, 0.271 µM; against DRB1*0405, 2.11 µM; at DRB1*1302, 1.58 µM; on DR4w4 (DRB1*0401) it was 0.366 µM. Further, the IC50 on DRB1*0901 stood at 11.3 µM; against DRB1*1501 it was 3.34 µM; against DR7 (DRB1*0701) it was 0.369 µM; against DRB1*0802 it was 4.33 µM.
As for DSDIAYYYAQLADSN [Peptide 89.0071], the IC50 on DR1 (DRB1*0101) is 0.198 µM; on DRB1*1101 (Binding affinity DRB1 *1101) it was 9.14 µM; at DRB5*0101, > 20 µM; against DRB1*0405 it was 6.03 µM; against DRB1*1302, > 20 µM; on DRB4*0101, 0.978 µM. Besides, the IC50 against DRB1*0901 came out at 2.34 µM; at DRB1*1501 it was 0.013 µM; against DR7 (DRB1*0701), 4.13 µM.
As to NTEVETQQMVQVEEQ [Peptide 89.0039], the IC50 at DR1 (DRB1*0101) was 2.63 µM; at DRB1*1101 (Binding affinity DRB1 *1101), > 20 µM; at DRB5*0101, > 20 µM; against DRB1*0405, > 20 µM; against DRB1*1302, > 20 µM; against DR4w4 (DRB1*0401), > 20 µM. Moreover, the IC50 on DRB1*0901, against DRB1*1501 and against DR7 (DRB1*0701) was > 20 µM throughout.
As for WCIIGMGVTPSVAEG [Peptide 89.0097], the IC50 at DR1 (DRB1*0101) is > 20 µM; at DRB1*1101 (Binding affinity DRB1 *1101), > 20 µM; at DRB5*0101, > 20 µM; at DRB1*0405, > 20 µM; on DRB1*1302, 2.09 µM; against DR4w4 (DRB1*0401), > 20 µM. The IC50 at DRB1*0901 is > 20 µM; at DRB1*1501, > 20 µM; on DR7 (DRB1*0701) it was 3.55 µM; on DRB1*0802 it was > 20 µM.
As for PEWIEQQTVLQHSFD [Peptide 89.0105], the IC50 against DRB1*0405 came to 5.59 µM; at DRB1*1302, 1.31 µM; at DRB4*0101 it was 0.98 µM; at DRB1*1501, 11.3 µM; against DR7 (DRB1*0701) it was 6.21 µM.
In the case of GQVIVFPESVFSSDE [Peptide 89.0173], the half-maximal inhibitory concentration (IC50) on DRB1*1101 (Binding affinity DRB1 *1101), on DRB5*0101, against DRB1*0405, against DRB1*1302, at DRB4*0101 and at DRB1*0901 was > 20 µM in each case. The values for the IC50 against DRB1*1501, on DR7 (DRB1*0701) and against DRB1*0802 were > 20 µM, > 20 µM and 2.12 µM, respectively.
Take NGWFYVEAVVEKKTG [Peptide 90.0029]: the IC50 turned out to be 0.219 µM on DR1 (DRB1*0101); 2.74 µM at DRB1*1101 (Binding affinity DRB1 *1101); 0.027 µM against DRB1*0405; 5.49 µM against DRB1*1302; 0.031 µM on DR4w4 (DRB1*0401); 0.955 µM against DRB1*0901. Also, the IC50 is > 20 µM against DRB1*1501, 0.307 µM against DR7 (DRB1*0701) and 6.4 µM against DRB1*0802.
Turning to DCKWGVLILALLRYK [Peptide 89.0026], the 50% inhibitory concentration (IC50) at DRB1*1101 (Binding affinity DRB1 *1101) worked out at 0.389 µM; at DRB5*0101, 1.12 µM; on DRB1*0405, 1.34 µM; on DRB1*1302, 0.786 µM; at DR4w4 (DRB1*0401), 1.09 µM; against DRB1*0901, 1 µM. In addition, the IC50 at DRB1*1501 stood at 0.41 µM; at DR7 (DRB1*0701) it was 7.36 µM; at DRB1*0802, 1.8 µM.
With PPLLITTNINPMLDA [Peptide 89.0139], the IC50 is 1.22 µM against DR1 (DRB1*0101); 7.37 µM at DRB1*1101; 3.39 µM on DRB1*0405; > 20 µM on DRB1*1302; 0.623 µM at DR4w4 (DRB1*0401); > 20 µM against DRB1*0901. For the same compound, the IC50 at DRB1*1501 is 4.78 µM; against DR7 (DRB1*0701) it was 7.54 µM; on DRB1*0802, 7.65 µM.
For the compound FLSYFKLFLQGTPKH [Peptide 89.0132], the IC50 at DR1 (DRB1*0101) was > 20 µM; on DRB1*1101 (Binding affinity DRB1 *1101), > 20 µM; on DRB5*0101 it was > 20 µM; on DRB1*0405 it was 7.81 µM; at DRB1*1302, 1.3 µM; on DRB4*0101, 0.0087 µM. Also, the IC50 on DRB1*1501, against DR7 (DRB1*0701) and at DRB1*0802 was > 20 µM throughout.
For DWCIIGMGVTPSVAE [Peptide 89.0096], the half-maximal inhibitory concentration (IC50) at DR1 (DRB1*0101) was > 20 µM; at DRB1*1101 (Binding affinity DRB1 *1101), > 20 µM; at DRB5*0101, > 20 µM; against DRB1*0405 it was > 20 µM; against DRB1*1302, 4.34 µM; against DRB4*0101 it was 0.19 µM. The IC50 was > 20 µM on DRB1*0901, 8.31 µM against DRB1*1501, 2.64 µM on DR7 (DRB1*0701) and > 20 µM at DRB1*0802.
Regarding `CSCC[C@H](NC(=O)[C@H](Cc1ccc(O)cc1)NC(=O)[C@H](Cc1ccc(O)cc1)NC(=O)[C@@H](NC(=O)[C@H](CO)NC(=O)[C@H](CC(=O)O)NC(=O)[C@H](Cc1c[nH]c2ccccc12)NC(=O)[C@H](C)NC(=O)[C@@H](N)C(C)C)C(C)C)C(=O)N[C@H](C(=O)N[C@@H](CC(=O)O)C(=O)N[C@@H](C)C(=O)NCC(=O)N[C@H](C(=O)N[C@@H](Cc1c[nH]c2ccccc12)C(=O)O)[C@@H](C)O)[C@@H](C)O` [Peptide 1601.10], the half-maximal inhibitory concentration (IC50) against DR1 (DRB1*0101) is 7.86 µM; on DRB1*1101 (Binding affinity DRB1 *1101) it was > 20 µM; on DRB5*0101 it was > 20 µM; against DRB1*0405 it was 7.43 µM; against DRB1*1302, > 20 µM; on DR4w4 (DRB1*0401) it was 1.66 µM. Further, the values for the half-inhibitory concentration (IC50) against DRB1*0901, at DRB1*1501 and against DRB1*0802 were 0.587 µM, > 20 µM and > 20 µM, respectively.
As for MVQVEEQQTTLSCNG [Peptide 89.0040], the IC50 is > 20 µM at DRB1*1101 (Binding affinity DRB1 *1101); > 20 µM on DRB5*0101; > 20 µM against DRB1*0405; > 20 µM against DRB1*1302; 0.34 µM against DR4w4 (DRB1*0401); > 20 µM on DRB1*0901. Further, the IC50 against DRB1*1501, against DR7 (DRB1*0701) and at DRB1*0802 was > 20 µM each time.
On to PMAVSKAKACQAIEL [Peptide 90.0013], for which the IC50 was 0.089 µM at DR1 (DRB1*0101); 1.55 µM on DRB1*1101 (Binding affinity DRB1 *1101); 12.8 µM on DRB5*0101; > 20 µM against DRB1*0405; 0.535 µM on DRB1*1302; 1.59 µM against DRB4*0101. In addition, the IC50 against DRB1*1501 is 16.6 µM.
Consider FIHFIQGAVISFVNS [Peptide 89.0036], for which the IC50 worked out at 4.33 µM at DRB1*1101 (Binding affinity DRB1 *1101); 6.02 µM at DRB5*0101; 1.22 µM on DRB1*0405; 0.097 µM on DRB1*1302; 0.13 µM on DRB4*0101; 0.137 µM against DRB1*0901. Further, the figures for the IC50 on DRB1*1501 and against DRB1*0802 were 0.677 µM and 3.42 µM, respectively.
TPEWIDRLTVLQHSF [Peptide 89.0069]: the IC50 against DR1 (DRB1*0101) is 14.6 µM; at DRB5*0101, > 20 µM; on DRB1*0405, 0.987 µM; against DRB1*1302, 8.86 µM; against DRB4*0101, 0.122 µM; at DRB1*0901, > 20 µM. The IC50 is 3.83 µM against DRB1*1501, 5.21 µM against DR7 (DRB1*0701) and 0.275 µM against DRB1*0802.
